From publication PMC12392461, “Beyond Estrogenicity: A Comparative Assessment of Bisphenol A and Its Alternatives in In Vitro Assays Questions Safety of Replacements” (Environmental Science & Technology, 2025)
Where two headings read alike, the source gives them in different places.

Experiments:
SH-SY5Y cells = assay: cells; conditions: for EC10: Homo sapiens, SH-SY5Y; for Specificity ratio (SRbaseline) SRNOI: against baseline cytotoxicity; for Relative effect potency REPNOI: relative to BPA; for EC10, linear: NOI bioassay, dosing range all, linear model;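 as to Relative effect potency REPNOI: EC10 of BPA divided by EC10 of the test compound so values above 1 mean more potent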;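 as to Specificity ratio (SRbaseline) SRNOI: ratio of predicted baseline cytotoxicity IC10 to the neurite outgrowth inhibition EC10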
In short: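 AREc32 (MCF7-based reporter) and AhR CALUX H4L7.5c2 cells were run in DMEM with 10% FBS, and SH-SY5Y cells were differentiated with 10 µM all-trans retinoic acid. Viability was taken from IncuCyte confluency, or live–dead staining for SH-SY5Y. ARE values are ECIR1.5, others EC10, using only concentrations below IC10.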

[1] = target: T1, Peroxisome proliferator-activated receptor γ (Homo sapiens, UniProt P37231); assay: cell-based; conditions: for EC10, linear / logEC10 / EC10, linear transformed: PPARγ bioassay; for EC10, linear: linear model; for logEC10: log-logistic model; for EC10, PPARγ (M): 10% of maximum effect of rosiglitazone; for SR-ScorePPARγ: SR-Score, sigma k=1, x=5; for Specificity ratio (SRbaseline) SRPPARγ: against baseline cytotoxicity; for Specificity ratio (SRcytotoxicity) SRPPARγ: against experimental cytotoxicity; for EC10, PPARγ: effect; for log(1/EC10) PPARγ: input of the ToxPi score, values up to 1.00; for Emax: read-out: Emax%PPARγ
T1 sequence (P37231 238-505 limits assumed): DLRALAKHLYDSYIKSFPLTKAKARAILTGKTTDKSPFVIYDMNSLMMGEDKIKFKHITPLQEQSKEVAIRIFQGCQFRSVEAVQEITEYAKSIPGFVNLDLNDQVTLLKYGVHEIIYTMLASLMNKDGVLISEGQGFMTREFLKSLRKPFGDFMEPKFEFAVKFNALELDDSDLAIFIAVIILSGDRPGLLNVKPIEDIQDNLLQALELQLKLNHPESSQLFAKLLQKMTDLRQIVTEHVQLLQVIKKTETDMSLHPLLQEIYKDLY
In short: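 ERα-UAS-bla GripTite and PPARγ-UAS-bla β-lactamase reporter cells were seeded and held 24 h at 37 °C, 5% CO₂ before dosing. EC10 values used only concentrations below the IC10 from IncuCyte confluency. Emax% is the log-logistic curve maximum relative to the reference chemical's maximum.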

physchem = conditions: for Double negative form (pH = 7.40) / Negative form (pH = 7.40) / Neutral form (pH = 7.40) / αneutral % (fraction of neutral species): from experimental pKa; for pKa: pKa (Acid); for αneutral % (fraction of neutral species): pH 7.4
[2] = system: Antioxidant response element; assay: MitoOxTox: oxidative stress response in AREc32; conditions: for EC10, linear / logEC10: Bioassay ARE, dosing range all; for EC10, linear: linear model fit; for logEC10: log-logistic model fit
In short: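 Only concentrations below cytotoxic IC10 entered EC10 or ECIR1.5 derivation, with ECIR1.5 serving as the ARE benchmark in AREc32 (MCF7) cells. AhR was read in H4L7.5c2 CALUX cells. SH-SY5Y cells received 10 µM all-trans retinoic acid for differentiation and were assessed by live–dead staining; other lines by confluency.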

[3] = read-out: EC10, linear transformed
[4] = phosphate buffer with […] KCl, Sirius T3 titrator, experimental, this study
[5] = Arec32, read-out: EC10, linear transformed
[6] = phosphate buffer with […] KCl, Sirius T3 titrator, second pKa column, experimental, this study

SMILES	EC10 (SH-SY5Y cells; read-out: EC10, NOI)	EC10 (SH-SY5Y cells; read-out: EC10, NOI (M))	EC10 (SH-SY5Y cells; read-out: EC10, linear)	EC10 (SH-SY5Y cells; [3])	EC10 (SH-SY5Y cells; read-out: logEC10)	EC10, linear ([1]; dosing range all)	logEC10 ([1]; dosing range all)	Double negative form (pH = 7.40) (physchem)	Negative form (pH = 7.40) (physchem)	Neutral form (pH = 7.40) (physchem)	EC10, linear [2]	logEC10 [2]	Specificity ratio (SRbaseline) SRNOI (SH-SY5Y cells)	Relative effect potency REPNOI (SH-SY5Y cells)	EC10, PPARγ (M) [1]	SR-ScorePPARγ [1]	Specificity ratio (SRbaseline) SRPPARγ [1]	Specificity ratio (SRcytotoxicity) SRPPARγ [1]	αneutral % (fraction of neutral species) (physchem)	pKa (physchem; [4])	further results
CC(c1ccccc1)(c1ccc(O)cc1)c1ccc(O)cc1 [BPAP, 4,4'-(1-Phenylethylidene)bisphenol]	5.12e-05 M	5.12e-05 M	4.83e-05 M	5.09e-05 M	5.13e-05 M	no effect	no effect	0.00503%	2%	98%	no effect	no effect									pKa (Acid) (physchem): 9.99; pKa (physchem): 9.1
O=S(=O)(c1ccc(O)cc1)c1ccc(OCc2ccccc2)cc1 [BPS-MPE, 4-[4-(benzyloxy)benzenesulfonyl]phenol]	0.000247 M	0.000247 M	0.000638 M	0.000247 M	0.000245 M				32%	68%		no effect	0.11	0.21	2.35 × 10^–7 M	1.00	49.84	570.13	68%	7.73	EC10, linear transformed ([1]; dosing range high): 1.15E-09; EC10, linear ([1]; dosing range high): 1.01E-07; logEC10 ([1]; dosing range high): -8.94; EC10, linear transformed ([1]; dosing range low): 2.35E-07; EC10, linear ([1]; dosing range low): 4.02E-07; logEC10 ([1]; dosing range low): -6.63; EC10, PPARγ [1]: 235 nM; log(1/EC10) PPARγ [1]: 0.94; Emax [1]: 25%; EC10 ([2]; Arec32, read-out: EC10, linear): 55.7 µM; EC10 [2, 5]: 133 µM
COC(=O)C(c1ccc(O)cc1)c1ccc(O)cc1 [Bz, Methyl bis(4-hydroxyphenyl)acetate]				0.0004 M	0.00038 M	no effect	no effect	3%	26%	71%	no effect	no effect							71%	7.83	EC10, linear (SH-SY5Y cells): no effect; pKa (physchem; [6]): 8.34; EC10 [2, 5]: 2200 µM
Cc1ccc(S(=O)(=O)NC(=O)Nc2ccc(Cc3ccc(NC(=O)NS(=O)(=O)c4ccc(C)cc4)cc3)cc2)cc1 [BTUM, 4,4'-Bis(p-tolylsulfonylureido)diphenylmethane]	6.48e-05 M	6.48e-05 M		6.48e-05 M	6.46e-05 M	2.64E-07	-6.59	99.53%	0.47%	0.0007%	no effect	no effect	1.03	0.78	2.56 × 10^–7 M	1.00	110.22	121.09	0.0007%	4.59	EC10, linear (SH-SY5Y cells): no effect; EC10, PPARγ [1]: 256 nM; log(1/EC10) PPARγ [1]: 0.93; Emax [1]: 47%; SR (PPARγ) ([1]; specificity ratio): 121; pKa (physchem; [6]): 5.07
